Structures are written as SMILES.

These results are taken from publication PMC3089437 (2011).

The target in this assay is mouse CB2 (mCB2) (Mus musculus, UniProt P47936). Format: binding.
Chain of mouse CB2 (mCB2) (P47936 whole entry): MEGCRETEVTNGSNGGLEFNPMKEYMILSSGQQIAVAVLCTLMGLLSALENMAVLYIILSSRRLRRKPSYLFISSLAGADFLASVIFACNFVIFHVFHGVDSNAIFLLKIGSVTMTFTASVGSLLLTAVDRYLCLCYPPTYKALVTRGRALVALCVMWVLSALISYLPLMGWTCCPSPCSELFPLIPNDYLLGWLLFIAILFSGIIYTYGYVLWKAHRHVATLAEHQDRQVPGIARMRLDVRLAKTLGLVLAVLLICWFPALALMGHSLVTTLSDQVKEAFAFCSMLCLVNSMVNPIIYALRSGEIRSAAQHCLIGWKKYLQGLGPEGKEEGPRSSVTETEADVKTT

The Ki is the equilibrium dissociation constant of an inhibitor or competing ligand from its target. The low end stands for tighter binding, the high end for weaker binding. Regarding `CCCCCCC(C)(C)c1cc(O)c2c(c1)oc(=O)c1ccc(OC)cc12` [AM1710, 3-(1′,1′-dimethylheptyl)-1-hydroxy-9-methoxy-6H-benzo[c]chromene-6-one], the affinity, expressed as Ki, was 17 nM.
